Results as given in US20240165170A1, “USE OF LACTIC ACID BACTERIUM SET FOR PREVENTING OR TREATING NSAID-INDUCED GASTRIC ULCER” (GRAPE KING BIO LTD., priority 2022, published 2024).
Values joined by “and” are separate entries in the source; they are usually repeats but may differ in a detail not shown here. Identical values can stand only once.

What was measured:
ICR male mice = assay: aspirin-induced gastric ulcer test in ICR mice (ulcer area, ulcer index, cure rate, mucosal ulcer pathology); type: in vivo; parameters: key to Mucosal ulcer (pathological indicator, score per mouse): Grade 0 represents no ulcers occurred in normal tissue; Grade 1 represents less than ⅓ of superficial ulcer lesions in gastric mucosa; Grade 2 represents about ½ of superficial to middle ulcer lesions in gastric mucosa; Grade 3 represents about ⅔ of superficial to deep ulcer lesions in gastric mucosa; grade 4 represents gastric mucosal epithelial full-thickness ulcer and the lesion penetrates 3/3 of the muscle layer
Description: A total of 24 ICR male mice purchased from BioLASCO (Lesco Biotechnology) were used as the experimental animals, each about 25 grams. The mice were kept in a general mouse cage, the room temperature was maintained at 22±3° C., the humidity was 55±15%, and the light and darkness were regularly 12 hours (12 hr light-dark cycle). Feed and sterile reverse osmosis water was allowed to be eaten by mice freely. Newly imported animals need to be observed for 3-5 days to ensure that there is no abnormality before testing. Before the experiment, the ICR mice were randomly grouped and caged, and each ICR mouse was marked with an ear number for identification and recording.
(§1) 24 mice were divided into a blank control group, a negative control group, a positive control group and a lactic acid bacteria test group, and there were 6 mice in each group. The mice were administered once a day for 39 consecutive days. The blank control group and the negative control group were given drinking water, the positive control group was given 20 mg/kg Omeprazole, and the lactic acid bacteria test group was given GKD7 and GKA4 freeze-dried powder, each 10.2 mg/kg/day. On day 29, 500 mg/kg aspirin was administered to the negative control group, positive control group and lactic acid bacteria test group to induce gastric ulcer (the blank control group was not administered) for 10 days (D29-D39), and finally the mice were sacrificed on D40 and performed various analyses.
(§2) The body weight of the mice was recorded every week, and after 39 consecutive days of administration, the mice were sacrificed with a high dose of Sutai 50 on the 40th day. The appearance, stomach tissues and organs of the mice were observed and made records.
Ulcer area statistics: ImageJ software was utilized to circle the ulcer focus of gastric tissue to calculate the gastric ulcer focus area of each ICR mouse. Each ulcer focus can get different scores according to the size of the ulcer (see the table below):
After each ulcer focus score is obtained, the application calculates the ulcer index of the mouse according to the following formula 1, and the higher the ulcer index, the more severe the ulcer.
If the experimental group mice (positive control group, lactic acid bacteria test group) are compared with the negative control group mice and the area of gastric ulcer (ulcer index) is reduced, it means that the experimental group produces a healing effect. Dividing the ulcer index of the experimental group by the ulcer index of the negative control group obtains the ulcer improvement rate, which is then subtracted from 1 to get the healing rate (cure rate) compared with the negative control group. The calculation method is shown as the following formula 2: […]

[1] = body weight change of mice during the test; type: in vivo; settings: between groups in the same period, p>0.05
Description: as §1, §2

COc1ccc2[nH]c([S+]([O-])Cc3ncc(C)c(OC)c3C)nc2c1 (centres unmarked) [Omeprazole]
ulcer area (ICR male mice; ICR mice, once daily for 39 days, 500 mg/kg aspirin D29-D39, sacrificed D40, 6 mice per group): 7.12±2.15 mm^2 | ulcer index (ICR male mice; ICR mice, once daily for 39 days, 500 mg/kg aspirin D29-D39, formula 1, higher index = more severe ulcer): 2.57±0.67 | Cure rate (%) (ICR male mice; formula 2: 1 minus ulcer index of group / ulcer index of negative control group): 53.25% | Mucosal ulcer (pathological indicator, score per mouse) (ICR male mice; stomach histopathology, individual mice, grade 0-4, higher score = more serious damage, listed as Positive control group): 0 and 1 | body weight of mice during the test [1]: no significant difference
